{
  "source": "paper PMC11062894",
  "about": "“Protein-based bandpass filters for controlling cellular signaling with chemical inputs” (Nature Chemical Biology, 2023)",
  "system": "GEMS receptors with CBPA11 (BclXL–LD3 and BclXLhigh variants), STAT3-driven SEAP in HEK293T cells",
  "assay": "GEMS SEAP reporter assay, CBPA11 (BclXLhigh, LD3-v and BclXL-v variants) with A-1155463",
  "assay_type": "cell-based",
  "design": "key to Raw data (SEAP) / SEAP, replicate values / Raw data of Figure 5b / Raw data Figure 5e / Raw data of Independent repeat of CBPA11-v1 vs CBPA11-v1-LD3v3 / Raw data of Independent repeat of CBPA11-v3 vs CBPA11-v3-LD3v3 / Raw data of Figure 5b, CBPA11-v1-LD3v3 (SEAP reporter raw value, single replicate) / Raw data of Figure 5b, CBPA11-v1 (SEAP reporter raw value, single replicate): SEAP activity in U/L in culture supernatant",
  "conditions": "for SEAP (U/L): Figure 4d, representative data and independent repeats 1, 2 (triplicates); for Normalized data (SEAP) / Raw data (SEAP): SuppFigure 9a",
  "description": "To rationally design a CBP responding to a chemical input, we used BclXL as the druglow receptor, LD3 as the designed binder and a designed BclXL variant as the drughigh receptor (referred to as BclXLhigh) to construct a CBP responsive to BclXL inhibitors (Fig. 4a). To design BclXLhigh, we used a multistate design computational protocol described elsewhere[26] […] Thus, BclXLhigh-v(1–3) were chosen as the functional drughigh receptors, resulting in three A-1155463-controlled CBPs (referred to as CBPA11-v(1–3)) (Fig. 4c–e).\nHEK293T cells were seeded in a 96-well plate 24 h before transfection. The transfection mix in each well consisted of 3 ng of constitutive human CMV promoter driven mammalian STAT3 expression vector (PhCMV-STAT3-pA), 30 ng of STAT3-induced reporter expression (OStat3-PhCMVmin-SEAP-pA) and 50 ng of expression vectors for each GEMS receptor chain (PSV40-IgK-(drughigh receptor)-EpoRm-IL-6RBm-pA and PSV40-IgK-(druglow receptor-GGGGSX3-LD3)-EpoRm-IL-6RBm-pA). For the specific drughigh receptor and druglow receptor used in the different cellular assays, they are indicated as wild type or with mutations. Then, plasmid DNA was mixed with 50 μl opti-MEM (Thermo Fisher) and 600 ng of polyethyleneimine (Polysciences, catalog no. 24765-1). For drug treatment experiments, drugs were added 12 h post-transfection and incubated with cells for 24 h before the SEAP reporter detection assay.\nSEAP activity (U l^−1) in cell culture supernatants was quantified by kinetic measurements at 405 nm (1 minute per measurement for 30 cycles) of absorbance increase due to phosphatase-mediated hydrolysis of para-nitrophenyl phosphate (pNPP).\nBinding affinities of SPR drug competition assays were calculated using three-parameter nonlinear regression in GraphPad Prism (v.8.3.0). Representative data of cell assays are presented as individual values and mean values (bars). n = 3 refers to biological replicates. All IC50 or EC50 values of cell assays reported were calculated using four-parameter nonlinear regression ± s.d. Bandpass features of cutoff concentrations and Bandwidth90% were estimated based on the curve fitted using bell-shaped curve nonlinear regression in GraphPad Prism (v.8.3.0). […]\nSupplementary Figure 4: Design, screening and validation of BclXLhigh variants. a) Screening of BclXLhigh variants in the GEMS platform. […]\nDissociation constant measurement of BclXLhigh-v(1-3) and LD3. Equilibrium curves are fitted using […]\nBclXLhigh-v1 (purple), BclXLhigh-v2 (blue), […]\na) Bcl2high-based bandpass filter designs were developed and to respond to different concentrations of […]\ncorresponding inhibitor. c) Screening of Bcl2high-based bandpass filter variants in the GEMS platform.\nThe designed binder LD3 was fused to the druglow-receptor (PSV40-IgK-Bcl2-LD3-EpoRm-IL-6RBm-pA) in one EpoR chain and Bcl2high variants with the insensitive Bcl2 (iBcl2) as control in the other EpoR chain (PSV40-IgK-Bcl2high-EpoRm-IL-6RBm-pA). HEK293T cells were transfected with indicated […]\nthe mean of six biological replicates ± s.d., overlaid with a scatter dot plot of the original data points.\n(1 picture or pasted object on this page, not shown here)\nSupplementary Figure 6: Binding affinities and drug resistances of Bcl2high-v(2,4,5) assessed by […]\na) Measurement of dissociation constants for Bcl2high-v(2,4,5) and LD3 interactions. Equilibrium curves […]\nBcl2high-v(2,4,5) measured by SPR. 5 μM of Bcl2 or indicated variants were mixed with 10 μM of […]\nBcl2high-v2 (red), Bcl2high-v4\nSupplementary Figure 7: Screening of LD3 variants in CBPA11-v(1-3) and raw data of CBPA11-v(1,3) with LD3-v3 variant. a-c) Screening of LD3 and LD3-v(1-3) variants in complex with BclXL for more sensitive CBPA11-v1 (a), CBPA11-v2 (b), CBPA11-v3 (c) in the GEMS platform. The LD3 variants replaced the role of LD3 (PSV40-IgK-BclXL-LD3-v(1-3)-EpoRm-IL-6RBm-pA) in one EpoR chain and BclXLhigh-v(1-3) in the other EpoR chain (PSV40-IgK-BclXLhigh-V(1-3)-EpoRm-IL-6RBm-pA). HEK293T cells were transfected with […]",
  "key": {"[1]": {"conditions": "CBPA11-v3-LD3v3, A-1155463 10000 nM"}},
  "note": "Where “and” joins values, the source holds several entries; their conditions need not be identical. Equal entries are not always repeated.",
  "data": [
    {"smiles": "CN(C)CC#Cc1ccc(OCCCc2sc(N3CCc4cccc(C(=O)Nc5nc6ccccc6s5)c4C3)nc2C(=O)O)c(F)c1", "note": "[A-1155463]", "values": [
      {"measurement": "Normalized data of Figure 5b", "setting": "[1]", "value": "13.381 and 8.285 and 13.0686"},
      {"measurement": "Raw data of Figure 5b", "setting": "[1]", "value": "11.3652 and 7.762 and 13.9821"},
      {"measurement": "SEAP (U/L)", "setting": "A-1155463 1 nM", "value": "8.303 U/L and 10.1289 U/L and 7.12 U/L and 9.7586 U/L and 8.864 U/L and 9.857 U/L"},
      {"measurement": "SEAP (U/L)", "setting": "A-1155463 3.16 nM", "value": "6.744 U/L and 8.922 U/L and 8.703 U/L and 12.2331 U/L and 8.658 U/L and 8.903 U/L"},
      {"measurement": "Normalized data (SEAP)", "setting": "BclXL-v1, A-1155463 1 nM", "value": 9.876},
      {"measurement": "Raw data (SEAP)", "setting": "BclXL-v1, A-1155463 1 nM", "value": 9.508},
      {"measurement": "Normalized data (SEAP)", "setting": "BclXL-v1, A-1155463 3.16 nM", "value": 8.253},
      {"measurement": "Raw data (SEAP)", "setting": "BclXL-v1, A-1155463 3.16 nM", "value": 7.946},
      {"measurement": "Normalized data (SEAP)", "setting": "BclXL-v1, A-1155463 100 nM", "value": 78.5603},
      {"measurement": "Raw data (SEAP)", "setting": "BclXL-v1, A-1155463 100 nM", "value": 75.6338},
      {"measurement": "Normalized data (SEAP)", "setting": "BclXL-v1, A-1155463 316 nM", "value": 100},
      {"measurement": "Raw data (SEAP)", "setting": "BclXL-v1, A-1155463 316 nM", "value": 96.2749},
      {"measurement": "Normalized data (SEAP)", "setting": "BclXL-v1, A-1155463 1000 nM", "value": 71.1878},
      {"measurement": "Raw data (SEAP)", "setting": "BclXL-v1, A-1155463 1000 nM", "value": 68.536},
      {"measurement": "Normalized data (SEAP)", "setting": "BclXL-v1, A-1155463 3160 nM", "value": 30.3077},
      {"measurement": "Raw data (SEAP)", "setting": "BclXL-v1, A-1155463 3160 nM", "value": 29.1787},
      {"measurement": "Normalized data (SEAP)", "setting": "BclXL-v1, A-1155463 10000 nM", "value": 12.5367},
      {"measurement": "Raw data (SEAP)", "setting": "BclXL-v1, A-1155463 10000 nM", "value": 12.0697},
      {"measurement": "Normalized data (SEAP)", "setting": "BclXL-v2, A-1155463 1 nM", "value": 3.201},
      {"measurement": "Raw data (SEAP)", "setting": "BclXL-v2, A-1155463 1 nM", "value": 9.801},
      {"measurement": "Normalized data (SEAP)", "setting": "BclXL-v2, A-1155463 3.16 nM", "value": 2.258},
      {"measurement": "Raw data (SEAP)", "setting": "BclXL-v2, A-1155463 3.16 nM", "value": 6.914},
      {"measurement": "Normalized data (SEAP)", "setting": "BclXL-v2, A-1155463 100 nM", "value": 100},
      {"measurement": "Raw data (SEAP)", "setting": "BclXL-v2, A-1155463 100 nM", "value": 306.188},
      {"measurement": "Normalized data (SEAP)", "setting": "BclXL-v2, A-1155463 316 nM", "value": 84.9937},
      {"measurement": "Raw data (SEAP)", "setting": "BclXL-v2, A-1155463 316 nM", "value": 260.24},
      {"measurement": "Normalized data (SEAP)", "setting": "BclXL-v2, A-1155463 1000 nM", "value": 53.3071},
      {"measurement": "Raw data (SEAP)", "setting": "BclXL-v2, A-1155463 1000 nM", "value": 163.22},
      {"measurement": "Normalized data (SEAP)", "setting": "BclXL-v2, A-1155463 3160 nM", "value": 38.1484},
      {"measurement": "Raw data (SEAP)", "setting": "BclXL-v2, A-1155463 3160 nM", "value": 116.806},
      {"measurement": "Normalized data (SEAP)", "setting": "BclXL-v2, A-1155463 10000 nM", "value": 23.1544},
      {"measurement": "Raw data (SEAP)", "setting": "BclXL-v2, A-1155463 10000 nM", "value": 70.8961},
      {"measurement": "Normalized data (SEAP)", "setting": "BclXL-v3, A-1155463 1 nM", "value": 38.0177},
      {"measurement": "Raw data (SEAP)", "setting": "BclXL-v3, A-1155463 1 nM", "value": 3.662},
      {"measurement": "Normalized data (SEAP)", "setting": "BclXL-v3, A-1155463 3.16 nM", "value": 36.4228},
      {"measurement": "Raw data (SEAP)", "setting": "BclXL-v3, A-1155463 3.16 nM", "value": 3.509},
      {"measurement": "Normalized data (SEAP)", "setting": "BclXL-v3, A-1155463 100 nM", "value": 68.011},
      {"measurement": "Raw data (SEAP)", "setting": "BclXL-v3, A-1155463 100 nM", "value": 6.552},
      {"measurement": "Normalized data (SEAP)", "setting": "BclXL-v3, A-1155463 316 nM", "value": 43.5621},
      {"measurement": "Raw data (SEAP)", "setting": "BclXL-v3, A-1155463 316 nM", "value": 4.196},
      {"measurement": "Normalized data (SEAP)", "setting": "BclXL-v3, A-1155463 1000 nM", "value": 47.9459},
      {"measurement": "Raw data (SEAP)", "setting": "BclXL-v3, A-1155463 1000 nM", "value": 4.619},
      {"measurement": "Normalized data (SEAP)", "setting": "BclXL-v3, A-1155463 3160 nM", "value": 98.7391},
      {"measurement": "Raw data (SEAP)", "setting": "BclXL-v3, A-1155463 3160 nM", "value": 9.512},
      {"measurement": "Normalized data (SEAP)", "setting": "BclXL-v3, A-1155463 10000 nM", "value": 92.8941},
      {"measurement": "Raw data (SEAP)", "setting": "BclXL-v3, A-1155463 10000 nM", "value": 8.949},
      {"measurement": "Normalized data (SEAP)", "setting": "BclXL, A-1155463 1 nM", "value": 5.357},
      {"measurement": "Raw data (SEAP)", "setting": "BclXL, A-1155463 1 nM", "value": 23.0325}
    ]}
  ]
}
